According to patent US9873696B2, “Neprilysin inhibitors” (THERAVANCE BIOPHARMA R&D IP, LLC, priority 2010, dated 2018):
pKi: −log10 of the molar value.

What follows are compounds tested against T1, human NEP (Homo sapiens, UniProt P08473) (assay: In vitro enzyme inhibition assay at human NEP (Assay 1)). Settings: recombinant enzyme, fluorogenic peptide substrate, 37° C.
T1 construct: purchased R&D Systems, Minneapolis, Minn; 1182-ZN
Format: biochemical
In short: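 Recombinant enzyme preincubated with compound 30 min at 37 °C, then 10 μM Mca-D-Arg-Arg-Leu-Dap-(Dnp)-OH added in 50 mM HEPES pH 7.5, 100 mM NaCl, 0.01% Tween-20, 10 μM ZnSO4; stopped after 20 min with acetic acid. Fluorescence read at 320/405 nm; Ki from nonlinear fit of v=v0/[1+(I/K′)], reported as pKi.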

T1 sequence (P08473 whole entry): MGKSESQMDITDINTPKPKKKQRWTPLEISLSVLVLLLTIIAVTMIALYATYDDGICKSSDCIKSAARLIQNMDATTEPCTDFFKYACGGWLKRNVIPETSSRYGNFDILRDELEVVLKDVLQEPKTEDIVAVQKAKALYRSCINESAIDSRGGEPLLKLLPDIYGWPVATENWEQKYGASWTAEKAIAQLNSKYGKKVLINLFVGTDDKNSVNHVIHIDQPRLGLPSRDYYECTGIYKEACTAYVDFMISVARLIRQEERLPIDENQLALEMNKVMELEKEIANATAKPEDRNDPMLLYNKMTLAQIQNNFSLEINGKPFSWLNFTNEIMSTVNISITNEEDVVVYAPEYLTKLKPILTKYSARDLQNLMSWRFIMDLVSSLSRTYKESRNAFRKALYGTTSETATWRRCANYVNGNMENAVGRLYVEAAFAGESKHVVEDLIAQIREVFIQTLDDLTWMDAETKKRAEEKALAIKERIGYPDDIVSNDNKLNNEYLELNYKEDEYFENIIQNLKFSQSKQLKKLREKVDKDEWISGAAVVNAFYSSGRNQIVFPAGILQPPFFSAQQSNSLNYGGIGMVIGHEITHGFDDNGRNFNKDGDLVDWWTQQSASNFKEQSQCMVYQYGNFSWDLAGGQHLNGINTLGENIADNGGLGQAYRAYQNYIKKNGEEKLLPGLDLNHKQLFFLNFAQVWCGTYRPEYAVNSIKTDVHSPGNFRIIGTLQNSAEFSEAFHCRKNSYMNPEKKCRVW

Row | Compound | pKi
1 | CC(C)(O)c1cc(C(=O)NN(Cc2ccc(-c3cc(Cl)ccc3F)cc2)C[C@@H](O)C(=O)O)nn1CC(=O)O [Example 8-56, (R)-3-[N′-[1-Carboxymethyl-5-(1-hydroxy-1-methyl-ethyl)-1H-pyrazole-3-carbonyl]-N-(5′-chloro-2′-fluoro-biphenyl-4-ylmethyl)-hydrazino]-2-hydroxy-propionic acid] | 8.00 to 8.90
2 | CCOc1cc(C(=O)NN(Cc2ccc(-c3cc(Cl)ccc3F)cc2)C[C@@H](O)C(=O)O)n[nH]1 [Example 8-57, (R)-3-[N-(5′-Chloro-2′-fluoro-biphenyl-4-ylmethyl)-N′-(5-ethoxy-1H-pyrazole-3-carbonyl)-hydrazino]-2-hydroxy-propionic acid] | 8.00 to 8.90
3 | O=C(NN(Cc1ccc(-c2cc(Cl)ccc2F)cc1)C[C@@H](O)C(=O)O)c1ccc(=O)[nH]n1 [Example 8-58, (R)-3-[N-(5′-Chloro-2′-fluoro-biphenyl-4-ylmethyl)-N′-(6-oxo-1,6-dihydro-pyridazine-3-carbonyl)-hydrazino]-2-hydroxy-propionic acid] | ≥ 9.00
4 | Cc1ccc(Cl)cc1-c1ccc(CN(C[C@@H](O)C(=O)O)NC(=O)c2nnn[nH]2)cc1 [Example 8-59, (R)-3-[N-(5′-Chloro-2′-methyl-biphenyl-4-ylmethyl)-N′-(1H-tetrazole-5-carbonyl)-hydrazino]-2-hydroxy-propionic acid] | ≥ 9.00
5 | O=C(NN(Cc1ccc(-c2cc(Cl)ccc2Cl)cc1)C[C@@H](O)C(=O)O)c1nnn[nH]1 [Example 8-60, (R)-3-[N-(2′,5′-Dichloro-biphenyl-4-ylmethyl)-N′-(1H-tetrazole-5-carbonyl)-hydrazino]-2-hydroxy-propionic acid] | ≥ 9.00
6 | O=C(NN(Cc1ccc(-c2cc(Cl)ccc2F)cc1)C[C@@H](O)C(=O)O)c1nn(-c2ccccc2)c(=O)[nH]1 [Example 8-64, (R)-3-[N-(5′-Chloro-2′-fluoro-biphenyl-4-ylmethyl)-N′-(5-oxo-1-phenyl-4,5-dihydro-1H-[1,2,4]triazole-3-carbonyl)-hydrazino]-2-hydroxy-propionic acid] | ≥ 9.00
7 | O=C(NN(Cc1ccc(-c2cc(Cl)ccc2F)cc1)C[C@@H](O)C(=O)O)c1nn(-c2ccc(F)cc2)c(=O)[nH]1 [Example 8-65, (R)-3-{N-(5′-Chloro-2′-fluoro-biphenyl-4-ylmethyl)-N′-[1-(4-fluoro-phenyl)-5-oxo-4,5-dihydro-1H-[1,2,4]triazole-3-carbonyl]-hydrazino}-2-hydroxy-propionic acid] | 8.00 to 8.90
8 | O=C(NN(Cc1ccc(-c2cc(Cl)ccc2F)cc1)C[C@@H](O)C(=O)O)c1nn(-c2ccccc2Cl)c(=O)[nH]1 [Example 8-66, (R)-3-{N-(5′-Chloro-2′-fluoro-biphenyl-4-ylmethyl)-N′-[1-(2-chloro-phenyl)-5-oxo-4,5-dihydro-1H-[1,2,4]triazole-3-carbonyl]-hydrazino}-2-hydroxy-propionic acid] | 8.00 to 8.90
9 | O=C(NN(Cc1ccc(-c2cc(Cl)ccc2F)cc1)C[C@@H](O)C(=O)O)c1nn(-c2cccc(Cl)c2)c(=O)[nH]1 [Example 8-67, (R)-3-{N-(5′-Chloro-2′-fluoro-biphenyl-4-ylmethyl)-N′-[1-(3-chloro-phenyl)-5-oxo-4,5-dihydro-1H-[1,2,4]triazole-3-carbonyl]-hydrazino}-2-hydroxy-propionic acid] | ≥ 9.00
10 | Cc1cc(C(=O)NN(Cc2ccc(-c3cc(Cl)ccc3F)cc2)C[C@@H](O)C(=O)O)cc2[nH]nnc12 [Example 8-68, (R)-3-[N-(5′-Chloro-2′-fluoro-biphenyl-4-ylmethyl)-N′-(7-methyl-3H-benzotriazole-5-carbonyl)-hydrazino]-2-hydroxy-propionic acid] | 8.00 to 8.90
11 | O=C(NN(Cc1ccc(-c2cc(Cl)ccc2F)cc1)C[C@@H](O)C(=O)O)c1cc(Cl)c2nn[nH]c2c1 [Example 8-69, (R)-3-[N′-(7-Chloro-3H-benzotriazole-5-carbonyl)-N-(5′-chloro-2′-fluoro-biphenyl-4-ylmethyl)-hydrazino]-2-hydroxy-propionic acid] | ≥ 9.00
12 | O=C(NN(Cc1ccc(-c2cc(Cl)ccc2F)cc1)C[C@@H](O)C(=O)O)c1cc(F)c2nn[nH]c2c1 [Example 8-73, (R)-3-[N-(5′-Chloro-2′-fluoro-biphenyl-4-ylmethyl)-N′-(7-fluoro-3H-benzotriazole-5-carbonyl)-hydrazino]-2-hydroxy-propionic acid] | ≥ 9.00
13 | O=C(NN(Cc1ccc(-c2cc(Cl)ccc2F)cc1)C[C@@H](O)C(=O)O)c1c[nH]c(=O)o1 [Example 8-74, (R)-3-[N-(5′-Chloro-2′-fluoro-biphenyl-4-ylmethyl)-N′-(2-oxo-2,3-dihydro-oxazole-5-carbonyl)-hydrazino]-2-hydroxy-propionic acid] | ≥ 9.00
14 | O=C(NN(Cc1ccc(-c2cc(Cl)ccc2F)cc1)C[C@@H](O)C(=O)O)c1cnn[nH]1 [Example 8-75, (R)-3-[N-(5′-Chloro-2′-fluoro-biphenyl-4-ylmethyl)-N′-(3H-[1,2,3]triazole-4-carbonyl)-hydrazino]-2-hydroxy-propionic acid] | ≥ 9.00
15 | O=C(NN(Cc1ccc(-c2cc(Cl)ccc2F)cc1)C[C@@H](O)C(=O)O)c1cn(O)nn1 [Example 8-76, (R)-3-[N-(5′-Chloro-2′-fluoro-biphenyl-4-ylmethyl)-N′-(1-hydroxy-1H-[1,2,3]triazole-4-carbonyl)-hydrazino]-2-hydroxy-propionic acid] | ≥ 9.00
16 | Cc1ccc(Cl)cc1-c1ccc(CN(C[C@@H](O)C(=O)O)NC(=O)c2cn(O)nn2)cc1 [Example 8-80, (R)-3-[N-(5′-Chloro-2′-methyl-biphenyl-4-ylmethyl)-N′-(1-hydroxy-1H-[1,2,3]triazole-4-carbonyl)-hydrazino]-2-hydroxy-propionic acid] | ≥ 9.00
17 | O=C(NN(Cc1ccc(-c2cc(Cl)cc(Cl)c2)cc1)C[C@@H](O)C(=O)O)c1cn(O)nn1 [Example 8-81, (R)-3-[N-(3′,5′-Dichloro-biphenyl-4-ylmethyl)-N′-(1-hydroxy-1H-[1,2,3]triazole-4-carbonyl)-hydrazino]-2-hydroxy-propionic acid] | 7.00 to 7.90
18 | O=C(NN(Cc1ccc(-c2cc(Cl)ccc2F)cc1)C[C@@H](O)C(=O)O)c1n[nH]c(Cl)n1 [Example 8-82, (R)-3-[N-(5′-Chloro-2′-fluoro-biphenyl-4-ylmethyl)-N′-(5-chloro-1H-[1,2,4]triazole-3-carbonyl)-hydrazino]-2-hydroxy-propionic acid] | ≥ 9.00
19 | O=C(NN(Cc1ccc(-c2cc(Cl)ccc2F)cc1)C[C@@H](O)C(=O)O)c1cnc(O)s1 [Example 8-83, (R)-3-[N-(5′-Chloro-2′-fluoro-biphenyl-4-ylmethyl)-N′-(2-hydroxy-thiazole-5-carbonyl)-hydrazino]-2-hydroxy-propionic acid] | ≥ 9.00
20 | O=C(NN(Cc1ccc(-c2cccc(Cl)c2)cc1F)C[C@@H](O)C(=O)O)c1cc(O)no1 [Example 9A, (R)-3-[N-(3′-Chloro-3-fluorobiphenyl-4-ylmethyl)-N′-(3-hydroxyisoxazole-5-carbonyl)-hydrazino]-2-hydroxpropionic Acid] | ≥ 9.00

Continued, values first:

Row | pKi | Compound
21 | 8.00 to 8.90 | O=C(NN(Cc1ccc(-c2ccccc2)cc1F)C[C@@H](O)C(=O)O)c1cc(O)no1 [Example 10-1, (R)-3-[N-(3-Fluoro-biphenyl-4-ylmethyl)-N′-(3-hydroxy-isoxazole-5-carbonyl)-hydrazino]-2-hydroxy-propionic acid]
22 | 8.00 to 8.90 | N#Cc1cc(-c2cccc(Cl)c2)ccc1CN(C[C@@H](O)C(=O)O)NC(=O)c1cc(O)no1 [Example 10-2, (R)-3-[N-(3′-Chloro-3-cyano-biphenyl-4-ylmethyl)-N′-(3-hydroxy-isoxazole-5-carbonyl)-hydrazino]-2-hydroxy-propionic acid]
23 | ≥ 9.00 | O=C(NN(Cc1ccc(-c2cccc(Cl)c2)c(Cl)c1)C[C@@H](O)C(=O)O)c1cc(O)no1 [Example 10-3, (R)-3-[N-(2,3′-Dichloro-biphenyl-4-ylmethyl)-N′-(3-hydroxy-isoxazole-5-carbonyl)-hydrazino]-2-hydroxy-propionic acid]
24 | ≥ 9.00 | O=C(NN(Cc1ccc(-c2cccc(Cl)c2)c(F)c1)C[C@@H](O)C(=O)O)c1cc(O)no1 [Example 10-6, (R)-3-[N-(3′-Chloro-2-fluoro-biphenyl-4-ylmethyl)-N′-(3-hydroxy-isoxazole-5-carbonyl)-hydrazino]-2-hydroxy-propionic acid]
25 | ≥ 9.00 | O=C(NN(Cc1ccc(-c2cc(Cl)ccc2F)cc1Cl)C[C@@H](O)C(=O)O)c1cc(O)no1 [Example 10-7, (R)-3-[N-(3,5′-Dichloro-2′-fluoro-biphenyl-4-ylmethyl)-N′-(3-hydroxy-isoxazole-5-carbonyl)-hydrazino]-2-hydroxy-propionic acid]
26 | 8.00 to 8.90 | O=C(NN(Cc1ccc(-c2cccc(Cl)c2)cc1F)C[C@@H](O)C(=O)O)c1nnn[nH]1 [Example 10-8, (R)-3-[N-(3′-Chloro-3-fluoro-biphenyl-4-ylmethyl)-N′-(1H-tetrazole-5-carbonyl)-hydrazino]-2-hydroxy-propionic acid]
27 | ≥ 9.00 | O=C(NN(Cc1ccc(-c2cccc(Cl)c2)cc1F)C[C@@H](O)C(=O)O)c1cn(O)nn1 [Example 10-9, (R)-3-[N-(3′-Chloro-3-fluoro-biphenyl-4-ylmethyl)-N′-(1-hydroxy-1H-[1,2,3]triazole-4-carbonyl)-hydrazino]-2-hydroxy-propionic acid]
28 | ≥ 9.00 | O=C(NN(Cc1ccc(-c2cc(Cl)ccc2F)cc1Cl)C[C@@H](O)C(=O)O)c1c[nH]nn1 [Example 10-10, (R)-3-[N-(3,5′-Dichloro-2′-fluoro-biphenyl-4-ylmethyl)-N′-(1H-[1,2,3]triazole-4-carbonyl)-hydrazino]-2-hydroxy-propionic acid]
29 | ≥ 9.00 | O=C(NN(Cc1ccc(-c2cccc(Cl)c2)cc1Cl)C[C@@H](O)C(=O)O)c1c[nH]nn1 [Example 10-11, (R)-3-[N-(3,3′-Dichloro-biphenyl-4-ylmethyl)-N′-(1H-[1,2,3]triazole-4-carbonyl)-hydrazino]-2-hydroxy-propionic acid]
